Values after ≈ are worked out from the molar mass of the structure shown.
Key:
[1] = tested on: Mycobacterium tuberculosis; assay: Antitubercular activity against Mycobacterium tuberculosis SS6; format: functional
[2] = tested on: Mycobacterium tuberculosis; assay: Antitubercular activity against Mycobacterium tuberculosis H37Rv; format: functional
[3] = tested on: Mycobacterium tuberculosis; assay: Antitubercular activity against Mycobacterium tuberculosis SS7; format: functional
[4] = tested on: Mycobacterium tuberculosis; assay: Antitubercular activity against Mycobacterium tuberculosis SS8; format: functional
[5] = tested on: Mycobacterium tuberculosis; assay: Antitubercular activity against Mycobacterium tuberculosis SS3; format: functional
[6] = tested on: Mycobacterium tuberculosis; assay: Antitubercular activity against Mycobacterium tuberculosis SS1; format: functional
[7] = tested on: Mycobacterium tuberculosis; assay: Antitubercular activity against Mycobacterium tuberculosis SS10; format: functional
[8] = tested on: Mycobacterium tuberculosis; assay: Antitubercular activity against Mycobacterium tuberculosis SS9; format: functional
[9] = tested on: Mycobacterium tuberculosis; assay: Antitubercular activity against Mycobacterium tuberculosis SS4; format: functional
[10] = tested on: Mycobacterium tuberculosis; assay: Antitubercular activity against Mycobacterium tuberculosis SS2; format: functional
[11] = tested on: Mycobacterium tuberculosis; assay: Antitubercular activity against Mycobacterium tuberculosis SS11; format: functional
[12] = tested on: Mycobacterium tuberculosis; assay: Antitubercular activity against Mycobacterium tuberculosis SS5; format: functional
[13] = Cytotoxicity against human Hep2 cells; format: cell-based, HEp-2
[14] = tested on: Mycobacterium tuberculosis; assay: Effect on mycobacterial growth of Mycobacterium tuberculosis H37Rv infected in human J774A1 cells at 0.25 ug/mL after 7 days; format: functional, J774.A1
[15] = tested on: Mycobacterium tuberculosis; assay: Effect on mycobacterial growth of Mycobacterium tuberculosis H37Rv infected in human J774A1 cells at 0.5 ug/mL after 7 days; format: functional, J774.A1
[16] = Cytotoxicity against human J774A1; format: cell-based, J774.A1; settings: J774A1 cells

Row | Compound | MIC90 [1] [µg/mL] | MIC90 [2] [µg/mL] | MIC90 [3] [µg/mL] | MIC90 [4] [µg/mL] | MIC90 [5] [µg/mL] | MIC90 [6] [µg/mL] | MIC90 [7] [µg/mL] | MIC90 [8] [µg/mL] | MIC90 [9] [µg/mL] | MIC90 [10] [µg/mL] | MIC90 [11] [µg/mL] | MIC90 [12] [µg/mL] | CC50 [13] [µg/mL] | CFU [14] [µL⁻¹] | CFU [15] [µL⁻¹] | CC50 [16] [µg/mL]
1 | CO[C@H]1/C=C/O[C@@]2(C)Oc3c(C)c(O)c4c(O)c(c(/C=N/N5CCN(C)CC5)c(O)c4c3C2=O)NC(=O)/C(C)=C\C=C\[C@H](C)[C@H](O)[C@@H](C)[C@@H](O)[C@@H](C)[C@H](OC(C)=O)[C@@H]1C [RIFAMPIN] | > 4 | 0.7 (≈ 0.851 µM) | 0.8 (≈ 0.972 µM) | 0.5 (≈ 0.608 µM) | 0.5 (≈ 0.608 µM) | > 4 | 0.8 (≈ 0.972 µM) | 0.5 (≈ 0.608 µM) | 0.7 (≈ 0.851 µM) | > 4 | 0.5 (≈ 0.608 µM) | 0.5 (≈ 0.608 µM) |  |  |  | 
2 | CCCCn1cc(C(=O)O)c(=O)c2ccc3c(nnn3C)c21 | > 32 | > 32 | > 32 | > 32 | > 32 | > 32 | > 32 | > 32 | > 32 | > 32 | > 32 | > 32 |  |  |  | 
3 | C=CCn1cc(C(=O)OCC)c(=O)c2ccc3c(nnn3C)c21 | > 32 | > 32 | > 32 | > 32 | > 32 | > 32 | > 32 | > 32 | > 32 | > 32 | > 32 | > 32 |  |  |  | 
4 | Cn1nnc2c3c(ccc21)c(=O)c(C(=O)O)cn3Cc1ccc(Br)cc1 | > 32 | > 32 | > 32 | > 32 | > 32 | > 32 | > 32 | > 32 | > 32 | > 32 | > 32 | > 32 |  |  |  | 
5 | CCn1cc(C(=O)O)c(=O)c2ccc3nn(C)nc3c21 |  | 5 (≈ 18.4 µM) |  |  |  |  |  |  |  |  |  |  |  |  |  | 
6 | CCCCn1cc(C(=O)OCC)c(=O)c2ccc3c(nnn3C)c21 | 0.5 (≈ 1.52 µM) | 0.5 (≈ 1.52 µM) | 0.5 (≈ 1.52 µM) | 0.5 (≈ 1.52 µM) | 0.5 (≈ 1.52 µM) | 0.5 (≈ 1.52 µM) | 0.5 (≈ 1.52 µM) | 0.5 (≈ 1.52 µM) | 0.5 (≈ 1.52 µM) | 0.5 (≈ 1.52 µM) | 0.5 (≈ 1.52 µM) | 0.5 (≈ 1.52 µM) | > 50 | 8000 | 5000 | > 50
7 | CCOC(=O)c1cn(CCc2ccccc2)c2c(ccc3c2nnn3C)c1=O | > 32 | > 32 | > 32 | > 32 | > 32 | > 32 | > 32 | > 32 | > 32 | > 32 | > 32 | > 32 |  |  |  | 
8 | CCCn1cc(C(=O)O)c(=O)c2ccc3c(nnn3C)c21 | 1.6 (≈ 5.59 µM) | 1.6 (≈ 5.59 µM) | 3.2 (≈ 11.2 µM) | 1.6 (≈ 5.59 µM) | 1.6 (≈ 5.59 µM) | 1.6 (≈ 5.59 µM) | 1.6 (≈ 5.59 µM) | 1.6 (≈ 5.59 µM) | 3.2 (≈ 11.2 µM) | 1.6 (≈ 5.59 µM) | 1.6 (≈ 5.59 µM) | 3.2 (≈ 11.2 µM) |  |  |  | 
9 | CCCn1cc(C(=O)OCC)c(=O)c2ccc3c(nnn3C)c21 | > 32 | > 32 | > 32 | > 32 | > 32 | > 32 | > 32 | > 32 | > 32 | > 32 | > 32 | > 32 |  |  |  | 
10 | CCOC(=O)c1cn(C)c2c(ccc3c2nnn3C)c1=O | 0.5 (≈ 1.75 µM) | 0.5 (≈ 1.75 µM) | 0.5 (≈ 1.75 µM) | 0.5 (≈ 1.75 µM) | 0.5 (≈ 1.75 µM) | 0.5 (≈ 1.75 µM) | 0.5 (≈ 1.75 µM) | 0.5 (≈ 1.75 µM) | 2 (≈ 6.99 µM) | 0.5 (≈ 1.75 µM) | 0.5 (≈ 1.75 µM) | 0.5 (≈ 1.75 µM) |  |  |  | 
11 | Cn1nnc2c3c(ccc21)c(=O)c(C(=O)O)cn3Cc1ccccc1 | > 32 | > 32 | > 32 | > 32 | > 32 | > 32 | > 32 | > 32 | > 32 | > 32 | > 32 | > 32 |  |  |  | 
12 | C=CCn1cc(C(=O)O)c(=O)c2ccc3c(nnn3C)c21 | > 32 | > 32 | > 32 | > 32 | > 32 | > 32 | > 32 | > 32 | > 32 | > 32 | > 32 | > 32 |  |  |  | 
13 | Cn1nnc2c3[nH]cc(C(=O)O)c(=O)c3ccc21 |  | 4.8 (≈ 19.7 µM) |  |  |  |  |  |  |  |  |  |  |  |  |  | 
14 | CCOC(=O)c1cn(Cc2ccccc2)c2c(ccc3c2nnn3C)c1=O | > 32 | > 32 | > 32 | > 32 | > 32 | > 32 | > 32 | > 32 | > 32 | > 32 | > 32 | > 32 |  |  |  | 
15 | Cn1nnc2c3c(ccc21)c(=O)c(C(=O)O)cn3CCc1ccccc1 | 3.2 (≈ 9.19 µM) | 0.8 (≈ 2.3 µM) | 3.2 (≈ 9.19 µM) | 0.8 (≈ 2.3 µM) | 3.2 (≈ 9.19 µM) | 0.8 (≈ 2.3 µM) | 3.2 (≈ 9.19 µM) | 0.8 (≈ 2.3 µM) | 3.2 (≈ 9.19 µM) | 0.8 (≈ 2.3 µM) | 0.8 (≈ 2.3 µM) | 3.2 (≈ 9.19 µM) |  |  |  | 
16 | CCOC(=O)c1cn(Cc2ccc(Br)cc2)c2c(ccc3c2nnn3C)c1=O | > 32 | > 32 | > 32 | > 32 | > 32 | > 32 | > 32 | > 32 | > 32 | > 32 | > 32 | > 32 |  |  |  | 
17 | CCn1cc(C(=O)O)c(=O)c2ccc3c(nnn3CC)c21 |  | 1.6 (≈ 5.59 µM) |  |  |  |  |  |  |  |  |  |  |  |  |  | 
18 | CCOC(=O)c1cn(Cc2ccc(C)cc2)c2c(ccc3c2nnn3C)c1=O | > 32 | > 32 | > 32 | > 32 | > 32 | > 32 | > 32 | > 32 | > 32 | > 32 | > 32 | > 32 |  |  |  | 
19 | CCn1cc(C(=O)O)c(=O)c2ccc3c(nnn3C)c21 | 1.6 (≈ 5.88 µM) | 1.6 (≈ 5.88 µM) | 3.2 (≈ 11.8 µM) | 1.6 (≈ 5.88 µM) | 3.2 (≈ 11.8 µM) | 1.6 (≈ 5.88 µM) | 1.6 (≈ 5.88 µM) | 1.6 (≈ 5.88 µM) | 3.2 (≈ 11.8 µM) | 0.8 (≈ 2.94 µM) | 1.6 (≈ 5.88 µM) | 1.6 (≈ 5.88 µM) |  |  |  | 
20 | Cn1cc(C(=O)O)c(=O)c2ccc3c(nnn3C)c21 | 0.5 (≈ 1.94 µM) | 0.5 (≈ 1.94 µM) | 0.5 (≈ 1.94 µM) | 0.5 (≈ 1.94 µM) | 0.5 (≈ 1.94 µM) | 0.5 (≈ 1.94 µM) | 0.5 (≈ 1.94 µM) | 0.5 (≈ 1.94 µM) | 2 (≈ 7.74 µM) | 0.5 (≈ 1.94 µM) | 0.5 (≈ 1.94 µM) | 0.5 (≈ 1.94 µM) |  |  |  | 
21 | Cc1ccc(Cn2cc(C(=O)O)c(=O)c3ccc4c(nnn4C)c32)cc1 | > 32 | > 32 | > 32 | > 32 | > 32 | > 32 | > 32 | > 32 | > 32 | > 32 | > 32 | > 32 |  |  |  | 

Source: ChEMBL document CHEMBL1146225, “[1,2,3]Triazolo[4,5-h]quinolones. A new class of potent antitubercular agents against multidrug resistant Mycobacterium tuberculosis strains” (Bioorg Med Chem Lett, 2007)
